Usually EC50 stands for the concentration needed to bring the measured effect to its halfway point. The term IC50 denotes the concentration that gives 50% inhibition.

For four molecules, EC50, IC50 and DC50 results are on record in patent publication US11066399B2, “Ferroportin inhibitors” (Vifor (International) AG, priority 2015, dated 2021).

Assay [1] concerns the target T1, human Fpn-GFP fusion construct (Homo sapiens, UniProt Q9NP59).
T1 construct: expressed in transfected cells; host or cells: HEK-293 cell line #354 (derivative of HEK-293 Tet-ON Advanced, Clontech)
T1 sequence (Q9NP59 1-571): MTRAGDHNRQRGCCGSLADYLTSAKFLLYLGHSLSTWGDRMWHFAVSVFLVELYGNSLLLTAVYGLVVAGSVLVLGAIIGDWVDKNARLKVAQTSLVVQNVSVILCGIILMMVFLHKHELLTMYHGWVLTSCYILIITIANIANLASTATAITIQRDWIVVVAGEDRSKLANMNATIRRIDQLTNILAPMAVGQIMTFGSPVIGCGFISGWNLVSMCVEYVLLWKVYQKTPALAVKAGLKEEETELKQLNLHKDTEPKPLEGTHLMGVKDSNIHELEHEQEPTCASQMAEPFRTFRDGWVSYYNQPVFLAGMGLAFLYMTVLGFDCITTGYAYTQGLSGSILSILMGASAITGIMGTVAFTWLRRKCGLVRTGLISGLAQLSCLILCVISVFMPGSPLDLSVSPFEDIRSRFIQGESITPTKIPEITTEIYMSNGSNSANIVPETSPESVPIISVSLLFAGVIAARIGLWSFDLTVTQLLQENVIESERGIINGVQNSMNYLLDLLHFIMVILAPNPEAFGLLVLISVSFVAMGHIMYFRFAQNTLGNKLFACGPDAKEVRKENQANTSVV
The experiment in a line: Inhibition of ferroportin mediated iron export activity in an iron response assay (BLAzer). The settings on record: average (AVE) of multiple measurements; HEK-293 cell line #354. It is filed as cell-based. From the text:
Intracellular iron levels are indirectly measured in this assay by monitoring the activity of a beta-lactamase (BLA) reporter gene fused to the human ferritin promoter and the associated iron regulatory element (IRE) contained within the 5′ untranslated region of the ferritin mRNA. Expression of ferroportin (Fpn) in such a cell line leads to iron efflux and lower iron levels as reflected by lower activity of the reporter gene. On the other hand, inhibition of Fpn-mediated iron efflux results in elevated cellular iron levels which is detected as increased reporter gene activity. Small molecular weight Fpn inhibitor compounds were tested for dose-dependent effects in this in vitro iron response assay as described below.
The HEK-293 cell line #354 was generated by stable integration of (i) a human Fpn-GFP fusion construct inserted in a derivative of the doxycycline-inducible pTRE-Tight-BI plasmid (Clontech, Cat. 631068) and (ii) a human ferritin promoter-BLA reporter gene into a derivative of the HEK-293 Tet-ON Advanced cell line (Clontech). […] After overnight incubation, 10 μl/well of dilution series of the test compounds were added in quadruplicates and plates were further incubated overnight at 37° C. with 5% CO2. Cells were washed 3 times with HBSS leaving 25 μl per well. BLA activity was detected by adding 5 μl/well of the GeneBlazer reagent CCF4-AM (Invitrogen, Cat. K1085) to the cells. After incubation of the plates in the dark at 18° C. for 60 min., blue and green fluorescence signals were measured in a Safire2 fluorescence plate reader (Tecan) with excitation at 410 nm and emissions at 458 nm (blue) and 522 nm (green). The ratio of blue/green fluorescence as a measure for BLA activity was calculated and EC50 values were determined with the calculated blue/green fluorescence ratios as described for the hepcidin internalization assay.

Assay [2] addresses T2, human Fpn-GFP fusion protein (Homo sapiens, UniProt Q9NP59).
T2 construct: expressed in transfected cells; host or cells: HEK-293 cell line #354 (derivative of HEK-293 Tet-ON Advanced, Clontech)
T2 sequence (Q9NP59 1-571): T1 sequence (Q9NP59 1-571)
Nature of the assay: Ferroportin Internalization and Degradation Assay (FACS). It is filed as cell-based. Particulars: average (AVE) of multiple measurements, Fpn-GFP MFI, HEK-293 cell line #354, FACS. On the procedure: Growing HEK-293 #354 cells in doxycycline containing media induced expression of human Fpn-GFP fusion protein on the cell surface. […] Small molecular weight Fpn inhibitor compounds were tested for dose-dependent effects on the Fpn-GFP mean fluorescence intensity (MFI) on HEK-293 cell line #354, as described below. HEK #354 cells were harvested from ca. 80% confluent cultures, seeded at 0.6×10^6 cells/ml in DMEM/F12 GlutaMAX™ medium (Invitrogen, Cat. 31331-028) containing 10% FBS (Clontech, Cat. 631106), 1% Penicillin-Streptomycin (Invitrogen, Cat. 15140-122), 200 μg/ml Hygromycin B (Invitrogen, Cat. 10687-010), Blasticidin 5 μg/ml, (Invitrogen, Cat. R210-01), 4 μg/ml doxycycline (Clontech, Cat. 631311), 50 μl per well of 384 well plates (Greiner; Cat. 781091) and grown at 37° C. with 5% CO2. After overnight incubation, 10 μl/well of dilution series of the test compounds were added in quadruplicates and plates were further incubated overnight at 37° C. with 5% CO2. Cells were washed once with FACS buffer (PBS containing 1% FBS, 2 mM EDTA and 0.05% NaN3), harvested in FACS buffer with 0.5 μg/ml propidium iodide (Sigma, Cat. P4864) and analyzed in a flow cytometer (CANTO™ II, BD Biosciences) equipped with high throughput sampler. Live HEK #354 cells were gated as propidium iodide negative population and analyzed for expression of Fpn-GFP.

The next assay has as its target T3, human Fpn (Homo sapiens, UniProt Q9NP59).
T3 construct: FLAG (C); made in house; host or cells: Pichia pastoris
T3 sequence (Q9NP59 1-571): T1 sequence (Q9NP59 1-571)
Nature of the assay: Biophysical Ferroportin-Hepcidin Binding Assay (fluorescence polarization). Particulars: average (AVE) of multiple measurements; TMR-hepcidin binding to purified human Fpn; read-out: FP IC50. On the procedure:
This biophysical assay was developed to confirm inhibition of hepcidin binding to ferroportin (Fpn) more directly. Incubation of TMR-hepcidin with purified human Fpn isolated from Pichia pastoris yeast cells expressing human Fpn with a C-terminal FLAG affinity tag (Bonaccorsi di Patti, 2014) leads to increased fluorescence polarization (FP) of the TMR-hepcidin ligand. Small molecular weight Fpn inhibitors were tested for inhibition of binding of TMR-hepcidin to Fpn, as detected by dose-dependent decrease of the TMR FP signal, as described in detail below.
A mixture of […] human Fpn and 30 nM TMR-hepcidin in FP assay buffer containing 50 mM Tris-HCl pH 7.3, 200 mM NaCl, 0.02% DDM, 0.1% BSA was plated into a 384 well black low volume round bottom plate (Corning, Cat. 3677) at 16 μl per well. 8 μl of serial dilutions of test compounds were added in duplicates to reach final Fpn and TMR-hepcidin concentrations of […] and 20 nM, respectively. Plates were incubated for 90 minutes at room temperature and parallel (S) and perpendicular (P) fluorescence was measured in a Synergy H1 fluorescence reader (BioTek). FP values were calculated in mP according to the following formula.
For orientation: Polarisation of emitted light reports the rotation of a fluorescent probe.

Turning to `O=C(NCc1ncccc1F)c1cnc(CCNCCc2nc3ccccc3[nH]2)o1` [Example 1], the EC50 in assay [1] stood at 930 nM; in assay [2], 220 nM. Further, the IC50 at human Fpn worked out at 16 nM.
With `O=C(NCc1ncccc1F)c1cnc(C2CN(CCc3nc4ccccc4[nH]3)C2)o1` [Example 2], the figures for the EC50 in assay [1] and in assay [2] were 1030 nM and 630 nM, respectively. Further, the IC50 on human Fpn stood at 17 nM.
Turning to `O=C(NCc1ncccc1F)c1csc(CCNCc2nc3ccccc3[nH]2)n1` [Example 40], the results for the EC50 in assay [1] and in assay [2] were 1450 nM and 810 nM, respectively. Moreover, on human Fpn, the IC50 came to 68 nM.
As to `O=C(NCc1ncccc1F)c1cnn(CCNCCc2cc3ccccc3[nH]2)c1` [Example 277], in assay [1], a half-maximal effect (EC50) was put at 170 nM. In addition, in assay [2] (read-out: EC50 (the source's name)), the DC50 came out at 69 nM.
